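The compound was tested at five concentrations on cells cultured in 96-well plates, with a 48-hour exposure period. GI50 is the concentration that inhibits growth by half. TGI: concentration producing complete growth inhibition.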
Assays:
Assay in all cases: growth of human tumour cells (NCI), 48 h
786-0 renal = test system: 786-0 renal
HT29 colon = test system: HT29 colon
LOX IMVI melanoma = test system: LOX IMVI melanoma
OVCAR-3 ovarian = test system: OVCAR-3 ovarian
OVCAR-8 ovarian = test system: OVCAR-8 ovarian
SF-295 CNS = test system: SF-295 CNS
SK-MEL-28 melanoma = test system: SK-MEL-28 melanoma
SR leukemia = test system: SR leukemia
MCF7 breast = test system: MCF7 breast
PC-3 prostate = test system: PC-3 prostate

SMILES	TGI (786-0 renal) [µM]	TGI (HT29 colon) [µM]	TGI (LOX IMVI melanoma) [µM]	TGI (OVCAR-3 ovarian) [µM]	TGI (OVCAR-8 ovarian) [µM]	TGI (SF-295 CNS) [µM]	TGI (SK-MEL-28 melanoma) [µM]	TGI (SR leukemia) [µM]	GI50 (786-0 renal) [µM]	GI50 (HT29 colon) [µM]	GI50 (LOX IMVI melanoma) [µM]	GI50 (OVCAR-3 ovarian) [µM]	GI50 (OVCAR-8 ovarian) [µM]	GI50 (SF-295 CNS) [µM]	GI50 (SK-MEL-28 melanoma) [µM]	GI50 (MCF7 breast) [µM]	TGI (MCF7 breast) [µM]	GI50 (PC-3 prostate) [µM]	TGI (PC-3 prostate) [µM]
O=S(=O)(NCn1ccc2ccccc21)c1ccccc1	> 100	> 57.2	> 100	> 100	> 100	> 100	> 100	> 74.3	–	–	–	–	–	–	–	–	–	–	–
O=C(O)CCNCCCCNCCC(=O)O	> 100	> 100	> 100	> 100	> 100	> 100	> 100	–	–	–	–	–	–	–	–	–	–	–	–
C=CCO/N=C(\OC(=O)c1ccc([N+](=O)[O-])cc1)c1ccccc1	> 100	> 100	–	> 100	> 100	> 100	> 100	–	–	–	–	–	–	–	–	–	–	–	–
C=CCC1=C(C)C[C@@H]2CCC(=O)C=C12	> 100	> 100	> 100	> 100	> 100	> 100	> 100	–	–	–	–	–	–	–	–	–	–	–	–
CC1CCSC(N(C(=O)N(C)c2ccccc2)c2ccccc2)=N1 (stereo unspecified)	> 100	> 100	> 100	> 100	> 100	> 100	> 100	–	–	–	–	–	–	–	–	–	–	–	–
N.N.N.N.N.O=[N+]([O-])[O-].[Co+3].[O-][Cl+3]([O-])([O-])[O-]	> 100	> 100	> 100	> 100	> 100	> 100	> 100	–	> 100	> 100	> 100	> 100	> 100	> 100	> 100	–	–	–	–
COc1ccc(C(=O)NNc2nc(Cl)nc(N3CCN(C(c4ccccc4)c4ccccc4)CC3)n2)cc1	12.9	–	3.05	3.45	4.36	30.6	3.76	–	3.37	–	1.63	1.89	1.89	16	1.84	> 100	> 100	1.74	3.59
C=CC(=O)Nc1cc(N2CCN(CC)CC2)ccc1Nc1cc(N(C)C(=O)Nc2c(Cl)c(OC)cc(OC)c2Cl)ncn1	12.1	5.29	11.9	15.4	18.1	31.8	4.53	–	2.97	2.24	2.82	3.49	4.38	16.7	2.03	2.7	19.2	5.05	20.8
CC(C)CCCC(C)[C@H]1CCC2[C@@H]3CCC4Nc5c(cnn5-c5ccccc5)C[C@]4(C)C3CC[C@@]21C (stereo partly specified)	> 100	> 100	–	> 100	> 100	7.46	–	–	–	–	–	–	–	–	–	–	–	–	–
COc1ccc(CCn2c(=O)c3ccccc3n(C)c2=O)cc1	> 100	> 100	–	> 100	> 100	> 100	> 100	–	–	–	–	–	–	–	–	–	–	–	–
CCOC(=O)N1CCc2cc(OC)c(OC)cc2/C1=C\c1ccc(OC)c(OC)c1	52.1	40.8	40.3	82.3	92.7	61.2	> 100	> 100	–	–	–	–	–	–	–	–	–	–	–
COC(=O)C1=C(C(=O)OC)C2(C)C=CC1O2 (stereo unspecified)	14.4	28.5	34.5	2.86	31.7	–	29.5	–	–	–	–	–	–	–	–	–	> 100	–	37.6
NNC(=O)C(=O)N/N=C1\CCC(=O)CC1C(=O)CCC(=O)Nc1ccc(Cl)cc1 (stereo unspecified)	> 100	> 100	> 100	> 100	> 100	> 100	> 100	–	–	–	–	–	–	–	–	–	–	–	–
CC(C)(C)OC(=O)NCCCn1c2c(c3ccccc3c1=O)C(=O)c1ccccc1-2	41.6	–	43	26.3	58.2	44.6	–	–	15.1	–	6.98	8.73	13.3	16.8	–	15	39.4	51.5	> 100
COC(=O)CC(NC(=O)OCc1ccccc1)C(C(=O)OCc1ccccc1)C(C)(OC)OC (stereo unspecified)	> 100	> 100	52.7	> 100	> 100	> 100	> 100	53	–	–	–	–	–	–	–	–	–	–	–
COc1ccc(C(=O)C(CC2C(=O)NC(=O)NC2=O)c2ccc(OC)cc2)cc1 (stereo unspecified)	> 100	> 100	> 100	> 100	> 100	> 100	> 100	> 100	–	–	–	–	–	–	–	–	–	–	–
CC(=O)O[C@]1(C)OC(=O)[C@@H](CC(C)C)N1[N+](=O)[O-]	> 100	> 100	> 100	> 100	> 100	> 100	> 100	> 100	–	–	–	–	–	–	–	–	–	–	–
Cc1cccc(C)c1NC(=O)CCc1nc(=S)[nH][nH]1	> 100	–	> 100	–	> 100	–	> 100	–	–	–	–	–	–	–	–	–	–	–	–
CC(C)OP(=O)(OC(C)C)/C(N)=N/Nc1ccc([N+](=O)[O-])cc1	> 100	–	> 100	> 100	> 100	–	> 100	> 100	–	–	–	–	–	–	–	–	–	–	–
Cc1ccc(S(=O)(=O)c2ccccc2[N+](=O)[O-])cc1	> 100	> 100	–	> 100	> 100	> 100	> 100	–	–	–	–	–	–	–	–	–	–	–	–
Cc1cc(N(CCC#N)CCC#N)ccc1N=Nc1ccc(Br)cc1	38.3	> 100	> 47.1	> 87.2	> 96.1	> 51	> 100	–	–	–	–	–	–	–	–	–	–	–	–

SMILES	TGI (786-0 renal) [µM]	TGI (HT29 colon) [µM]	TGI (LOX IMVI melanoma) [µM]	TGI (OVCAR-3 ovarian) [µM]	TGI (OVCAR-8 ovarian) [µM]	TGI (SF-295 CNS) [µM]	TGI (SK-MEL-28 melanoma) [µM]	TGI (SR leukemia) [µM]	GI50 (786-0 renal) [µM]	GI50 (HT29 colon) [µM]	GI50 (LOX IMVI melanoma) [µM]	GI50 (OVCAR-3 ovarian) [µM]	GI50 (OVCAR-8 ovarian) [µM]	GI50 (SF-295 CNS) [µM]	GI50 (SK-MEL-28 melanoma) [µM]	GI50 (MCF7 breast) [µM]	TGI (MCF7 breast) [µM]	GI50 (PC-3 prostate) [µM]	TGI (PC-3 prostate) [µM]
N/N=C1\C(=O)N(c2ccc(Cl)cc2Cl)C(=O)C(=O)C1c1nc2ccccc2o1 (stereo unspecified)	> 100	> 100	> 100	> 100	> 100	> 100	> 100	–	–	–	–	–	–	–	–	–	–	–	–
C[Si](C)(C)/C=C\CCO	> 100	> 100	> 100	> 100	> 100	> 100	> 100	> 100	–	–	–	–	–	–	–	–	–	–	–
C1CC2CN(CCCN3CCOCC3)C(C1)O2 (stereo unspecified)	> 100	> 100	> 100	> 100	> 100	> 100	> 100	–	–	–	–	–	–	–	–	–	> 100	–	> 100
S=c1nc(N/N=C/c2ccco2)c2cn[nH]c2[nH]1	> 100	–	> 100	> 100	> 100	> 100	> 100	–	> 100	–	58.7	32.3	69.2	> 100	> 100	3.6	> 100	57.5	> 100
COc1ccc(CCc2cc(OC)cc(OC)c2)cc1	> 100	47.9	> 100	> 65.9	> 100	> 100	> 100	> 100	–	–	–	–	–	–	–	–	–	–	–
c1ccc2c(c1)oc1ccc3nsnc3c12	> 100	> 100	> 10	> 100	–	> 100	> 100	> 100	–	–	–	–	–	–	–	–	–	–	–
O=c1/c(=C\c2ccc(F)cc2)sc2n1C(c1ccc(F)cc1)C1=C(N=2)c2ccc3ccccc3c2OCC1 (stereo unspecified)	> 100	> 100	> 100	> 100	> 100	> 100	> 100	–	> 100	> 100	> 100	> 100	> 100	> 100	> 100	> 100	> 100	> 52.8	> 100
CC(=O)OCC(=O)[C@@]12OC(C)(C)O[C@@H]1C[C@H]1[C@@H]3CC(C=O)=C4C=C(OCCCl)CC[C@]4(C)[C@@]3(F)[C@@H](O)C[C@@]12C	> 100	36.8	> 100	> 100	> 100	46.4	80.1	> 100	–	–	–	–	–	–	–	–	–	–	–
CC(=O)[O-].[Mn+3].[O-]c1ccccc1C=NCCNCCN=Cc1ccccc1[O-]	> 100	> 100	> 100	> 100	> 100	> 100	> 100	–	> 100	> 100	> 100	> 100	> 100	> 100	> 100	–	–	–	–
Cc1c(NC(=S)NC(=O)c2ccc([N+](=O)[O-])cc2)c(=O)n(-c2ccccc2)n1C	> 100	> 100	> 100	> 100	> 100	> 100	> 100	> 100	–	–	–	–	–	–	–	–	–	–	–
CCOC(=O)CCn1ncc(Cl)c(Cl)c1=O	34.7	14.2	25.7	10.8	11.9	34.2	6.58	7.28	–	–	–	–	–	–	–	–	–	–	–
O=C(Nc1ccc(-c2nc(-c3cccc(OCCN4CCOCC4)c3)c(-c3ccnc(Br)c3)[nH]2)cc1)c1ccccc1	2.39	–	–	> 100	> 100	–	3.94	–	0.741	–	–	4.27	3.96	–	1.5	0.74	3.14	2.36	> 100
CCCCCC[C@H](C)Nc1nc2ccccc2c2occc12	21.7	> 100	21.4	24.3	26.3	25.5	47.2	–	9.87	8.15	8.61	6.27	10.8	6.01	21.2	> 100	> 100	14.8	35.5
CC1=NN(C(=O)c2ccc(Cl)cc2)C(=O)/C1=C/c1ccccc1O	> 100	> 100	> 100	> 100	> 100	> 100	> 100	–	–	–	–	–	–	–	–	–	–	–	–
COc1ncnc(S(=O)(=O)c2ccc(N=C3C(=O)N(CN4CCN(c5cc6c(cc5F)c(=O)c(C(=O)O)cn6C5CC5)CC4)c4ccc(Cl)cc43)cc2)c1OC	> 50	> 50	> 50	> 50	> 50	> 50	> 50	–	33.7	> 50	23.8	> 50	32.9	> 50	> 50	34.1	> 50	34.9	> 50
CCCCCCCCNCCC[C@@H](C)[C@H]1CC[C@H]2[C@@H]3[C@H](OCCCN)C[C@H]4C[C@H](OCCCN)CC[C@]4(C)[C@H]3C[C@H](OCCCN)[C@]12C	3.3	7.59	3.54	21.5	4.07	4.43	2.78	–	1.21	1.71	1.57	5	1.82	0.993	0.776	–	–	5.58	> 49.3
C[C@]12CC[C@H](O)CC1=CC[C@@H]1C2CC[C@]2(C)Nc3c(cnn3-c3ccccc3)CC12 (stereo partly specified)	7.16	4.88	–	40.2	> 100	1.87	18.7	–	–	–	–	–	–	–	–	–	–	–	–
O=c1[nH]c2ccccc2n1CCCN1CCC(n2c(=O)[nH]c3cc(Cl)ccc32)CC1	30	30.3	–	38.9	38.6	–	31.1	–	–	–	–	–	–	–	–	–	34.9	–	43.9
COC(=O)c1c2c(cc3c1CC1(Cc4cc5c(c(C(C)=O)c4C1)CCC5)C3)CCC2 (stereo unspecified)	> 100	> 100	> 100	> 100	> 100	99.3	> 100	> 100	–	–	–	–	–	–	–	–	–	–	–
c1ccc(-c2nc(N3CCOCC3)c3c4c(sc3n2)CCCCCC4)nc1	32.8	22.7	20.9	16.2	30.5	15.8	23.2	–	11.7	6.05	5.24	4.6	5.08	3.39	11	3.04	12.8	2.69	11.8
CC(C)(C)C(=CS(=O)/N=C/c1ccccc1)C(C)(C)C (stereo unspecified)	> 100	> 100	35.4	> 100	> 100	–	> 100	58.9	–	–	–	–	–	–	–	–	–	–	–

Reference: PubChem BioAssay (NCI)
